PubChem BioAssay (NCI)
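Each compound was tested at five concentrations against cells in 96-well plates for 48 hours. Here, GI50 denotes the concentration required for 50% inhibition of growth. TGI is the concentration that stops growth completely.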

Key:
Experiment in all cases: NCI anticancer screen, dose series, 48 h
COLO 205 colon = system: COLO 205 colon
LOX IMVI melanoma = system: LOX IMVI melanoma
MALME-3M melanoma = system: MALME-3M melanoma
NCI-H23 lung = system: NCI-H23 lung
PC-3 prostate = system: PC-3 prostate
UO-31 renal = system: UO-31 renal
KM12 colon = system: KM12 colon
SF-539 CNS = system: SF-539 CNS
SW-620 colon = system: SW-620 colon
UACC-62 melanoma = system: UACC-62 melanoma
MDA-MB-231 breast = system: MDA-MB-231 breast
K-562 leukemia = system: K-562 leukemia
OVCAR-3 ovarian = system: OVCAR-3 ovarian
M14 melanoma = system: M14 melanoma
HCT-15 colon = system: HCT-15 colon
HL-60(TB) leukemia = system: HL-60(TB) leukemia
ACHN renal = system: ACHN renal
HOP-92 NSCLC = system: HOP-92 NSCLC
MDA-MB-435 = system: MDA-MB-435
EKVX NSCLC = system: EKVX NSCLC
U251 CNS = system: U251 CNS
NCI-H522 lung = system: NCI-H522 lung
HCT-116 colon = system: HCT-116 colon
MCF7 breast = system: MCF7 breast
HOP-62 NSCLC = system: HOP-62 NSCLC
OVCAR-4 ovarian = system: OVCAR-4 ovarian
HS 578T breast = system: HS 578T breast
TK-10 renal = system: TK-10 renal
HT29 colon = system: HT29 colon
RXF 393 renal = system: RXF 393 renal
IGROV1 ovarian = system: IGROV1 ovarian
SK-MEL-2 melanoma = system: SK-MEL-2 melanoma
T-47D breast = system: T-47D breast
SK-MEL-5 melanoma = system: SK-MEL-5 melanoma
SK-OV-3 ovarian = system: SK-OV-3 ovarian
RPMI-8226 leukemia = system: RPMI-8226 leukemia
SK-MEL-28 melanoma = system: SK-MEL-28 melanoma
OVCAR-8 ovarian = system: OVCAR-8 ovarian
SNB-75 CNS = system: SNB-75 CNS
BT-549 breast = system: BT-549 breast
CAKI-1 renal = system: CAKI-1 renal
NCI-H226 lung = system: NCI-H226 lung
MOLT-4 leukemia = system: MOLT-4 leukemia
786-0 renal = system: 786-0 renal
SN12C renal = system: SN12C renal
SF-295 CNS = system: SF-295 CNS
CCRF-CEM leukemia = system: CCRF-CEM leukemia
SF-268 CNS = system: SF-268 CNS
NCI/ADR-RES ovarian = system: NCI/ADR-RES ovarian
OVCAR-5 ovarian = system: OVCAR-5 ovarian
SNB-19 CNS = system: SNB-19 CNS
NCI-H460 lung = system: NCI-H460 lung
UACC-257 melanoma = system: UACC-257 melanoma
A549 NSCLC = system: A549 NSCLC
DU-145 prostate = system: DU-145 prostate
A498 renal = system: A498 renal
HCC-2998 colon = system: HCC-2998 colon

`CC(=O)c1c(C(F)(F)F)n([O-])c2ccc(Cl)cc2[n+]1=O` showed a GI50 (COLO 205 colon) of 1770 nM, a GI50 (LOX IMVI melanoma) of 652 nM and a TGI (LOX IMVI melanoma) of 3920 nM. It also gave a GI50 (MALME-3M melanoma) of 1840 nM, a TGI (MALME-3M melanoma) of 3730 nM and a GI50 (NCI-H23 lung) of 1720 nM. For the same compound, the TGI (NCI-H23 lung) was 6640 nM, the TGI (PC-3 prostate) was 2790 nM and the GI50 (UO-31 renal) was 1920 nM. The GI50 (KM12 colon) was 364 nM, the TGI (KM12 colon) was 2390 nM and the GI50 (SF-539 CNS) was 161 nM. For the same compound, the TGI (SF-539 CNS) was 526 nM, the GI50 (SW-620 colon) was 1170 nM and the GI50 (UACC-62 melanoma) was 916 nM. The TGI (UACC-62 melanoma) was 3450 nM, the GI50 (MDA-MB-231 breast) was 1300 nM and the TGI (MDA-MB-231 breast) was 3270 nM. It also gave a GI50 (K-562 leukemia) of 509 nM, a TGI (K-562 leukemia) of 3520 nM and a GI50 (OVCAR-3 ovarian) of 2640 nM. For the same compound, the TGI (OVCAR-3 ovarian) was 8130 nM, the GI50 (M14 melanoma) was 1780 nM and the TGI (M14 melanoma) was 5050 nM. It also gave a GI50 (HCT-15 colon) of 649 nM, a TGI (HCT-15 colon) of 4050 nM and a GI50 (HL-60(TB) leukemia) of 681 nM. The TGI (HL-60(TB) leukemia) was 4650 nM, the GI50 (ACHN renal) was 690 nM and the TGI (ACHN renal) was 4960 nM. The GI50 (HOP-92 NSCLC) was 1230 nM, the TGI (HOP-92 NSCLC) was 2900 nM and the GI50 (MDA-MB-435) was 2800 nM. The TGI (MDA-MB-435) was 9940 nM, the GI50 (EKVX NSCLC) was 818 nM and the TGI (EKVX NSCLC) was 2290 nM. It also gave a GI50 (U251 CNS) of 772 nM, a TGI (U251 CNS) of 4890 nM and a GI50 (NCI-H522 lung) of 2500 nM. The TGI (NCI-H522 lung) was 9620 nM, the GI50 (HCT-116 colon) was 662 nM and the GI50 (MCF7 breast) was 216 nM. For the same compound, the GI50 (HOP-62 NSCLC) was 490 nM, the TGI (HOP-62 NSCLC) was 1860 nM and the GI50 (OVCAR-4 ovarian) was 19000 nM. The TGI (OVCAR-4 ovarian) was 50800 nM, the GI50 (HS 578T breast) was 6650 nM and the TGI (HS 578T breast) was > 26500 nM. For the same compound, the GI50 (TK-10 renal) was 838 nM, the TGI (TK-10 renal) was 2660 nM and the GI50 (HT29 colon) was 1400 nM. For the same compound, the TGI (HT29 colon) was > 100000 nM, the GI50 (RXF 393 renal) was 5110 nM and the TGI (RXF 393 renal) was 25400 nM. It also gave a GI50 (IGROV1 ovarian) of 322 nM, a GI50 (SK-MEL-2 melanoma) of 3180 nM and a TGI (SK-MEL-2 melanoma) of 12500 nM. The GI50 (T-47D breast) was 2310 nM, the TGI (T-47D breast) was > 40400 nM and the GI50 (SK-MEL-5 melanoma) was 822 nM. For the same compound, the TGI (SK-MEL-5 melanoma) was 2650 nM, the GI50 (SK-OV-3 ovarian) was 6650 nM and the TGI (SK-OV-3 ovarian) was 19900 nM. The GI50 (RPMI-8226 leukemia) was < 42.2 nM, the TGI (RPMI-8226 leukemia) was 171 nM and the GI50 (SK-MEL-28 melanoma) was 1970 nM. For the same compound, the TGI (SK-MEL-28 melanoma) was 6310 nM, the GI50 (OVCAR-8 ovarian) was 3660 nM and the TGI (OVCAR-8 ovarian) was 20400 nM. The GI50 (SNB-75 CNS) was 1690 nM, the TGI (SNB-75 CNS) was 8380 nM and the GI50 (BT-549 breast) was 1140 nM. It also gave a TGI (BT-549 breast) of 2650 nM, a GI50 (CAKI-1 renal) of 3690 nM and a TGI (CAKI-1 renal) of 13500 nM. For the same compound, the GI50 (NCI-H226 lung) was 1400 nM, the TGI (NCI-H226 lung) was 3430 nM and the TGI (MOLT-4 leukemia) was 1540 nM. It also gave a GI50 (786-0 renal) of 55.1 nM, a TGI (786-0 renal) of 382 nM and a GI50 (SN12C renal) of 990 nM. It also gave a TGI (SN12C renal) of 2520 nM, a GI50 (SF-295 CNS) of 2230 nM and a TGI (SF-295 CNS) of 5920 nM. For the same compound, the GI50 (CCRF-CEM leukemia) was 10.8 nM, the TGI (CCRF-CEM leukemia) was 2220 nM and the GI50 (SF-268 CNS) was 1350 nM. For the same compound, the TGI (SF-268 CNS) was 8780 nM, the GI50 (NCI/ADR-RES ovarian) was 3400 nM and the TGI (NCI/ADR-RES ovarian) was > 23100 nM. For the same compound, the GI50 (OVCAR-5 ovarian) was 2740 nM, the TGI (OVCAR-5 ovarian) was 18600 nM and the GI50 (SNB-19 CNS) was 4750 nM. The TGI (SNB-19 CNS) was > 27600 nM, the GI50 (NCI-H460 lung) was 19.1 nM and the TGI (NCI-H460 lung) was 286 nM. For the same compound, the GI50 (UACC-257 melanoma) was 4000 nM, the TGI (UACC-257 melanoma) was 20800 nM and the GI50 (A549 NSCLC) was 2500 nM. The TGI (A549 NSCLC) was 11600 nM, the GI50 (DU-145 prostate) was 158 nM and the TGI (DU-145 prostate) was 576 nM. It also gave a GI50 (A498 renal) of 1330 nM, a TGI (A498 renal) of 2880 nM and a GI50 (HCC-2998 colon) of 1030 nM. For the same compound, the TGI (HCC-2998 colon) was 2410 nM.
